Test systems include SK-MEL-5 melanoma; K-562 leukemia; CAKI-1 renal; KM12 colon; ACHN renal; EKVX NSCLC; M14 melanoma; PC-3 prostate; MCF7 breast; 786-0 renal.
What all share (assay): NCI tumour cell line growth inhibition, 48 h

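Following 48 hours of exposure in 96-well plates, responses at five concentrations were used to interpolate endpoints linearly. GI50: concentration for 50% inhibition of growth. The concentration for full growth arrest is given as TGI.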 Where only a bound is given, the exact number is not on record here.

Regarding `CC(C)(C)C(=O)c1c(C(F)(F)F)n([O-])c2cc(Cl)c(Cl)cc2[n+]1=O`, the GI50 was 0.277 µM in the assay with SK-MEL-5 melanoma; 582 nM in the assay with K-562 leukemia; 0.248 µM with CAKI-1 renal; 0.19 µM with KM12 colon; 0.389 µM with ACHN renal; 1.91 µM with EKVX NSCLC. The GI50 is 0.998 µM in the assay on M14 melanoma, 1580 nM with PC-3 prostate, 0.168 µM with MCF7 breast and 0.466 µM with 786-0 renal. For the same compound, the TGI with SK-MEL-5 melanoma worked out at 1.1 µM; in the assay on K-562 leukemia, 1.15 µM; in the assay on CAKI-1 renal it was 0.639 µM; with KM12 colon, 0.45 µM; in the assay on ACHN renal, 0.782 µM; with EKVX NSCLC it was 3.4 µM. Also, the TGI in the assay on M14 melanoma amounted to 2.57 µM; in the assay with PC-3 prostate, 3.03 µM; with MCF7 breast, 0.566 µM; in the assay on 786-0 renal, 0.882 µM.

Consider `CNCC(=O)NC(CO)C(=O)NC(CO)C(=O)NC1C(C(N)=O)OC(n2ccc(N)nc2=O)C(O)C1O` (stereo not given), for which the GI50 in the assay on SK-MEL-5 melanoma is 16.1 µg/mL; in the assay on K-562 leukemia it was more than 50 µg/mL; in the assay with CAKI-1 renal it was 15.7 µg/mL; in the assay on KM12 colon, 20.3 µg/mL; in the assay with ACHN renal, 5.15 µg/mL; in the assay on EKVX NSCLC, 7.9 µg/mL. For the same compound, the GI50 with M14 melanoma was 9.22 µg/mL; with PC-3 prostate, 10.2 µg/mL; in the assay on MCF7 breast, more than 50 µg/mL; with 786-0 renal, 12.5 µg/mL. In addition, the TGI was more than 50 µg/mL with SK-MEL-5 melanoma; more than 50 µg/mL in the assay with K-562 leukemia; more than 50 µg/mL in the assay on CAKI-1 renal; more than 50 µg/mL with KM12 colon; more than 50 µg/mL in the assay on ACHN renal; 31.8 µg/mL in the assay with EKVX NSCLC. In addition, the TGI is 35.3 µg/mL in the assay with M14 melanoma, 47.5 µg/mL in the assay on PC-3 prostate, more than 50 µg/mL in the assay with MCF7 breast and more than 50 µg/mL with 786-0 renal.

`CC1=CC(C)(C)Nc2ccc(Cc3ccc4c(c3)C(C)=CC(C)(C)N4)cc21`: the GI50 in the assay with SK-MEL-5 melanoma was 9.05 µM; in the assay on K-562 leukemia, 3600 nM; in the assay on CAKI-1 renal, 13 µM; with KM12 colon, 8.34 µM; in the assay with ACHN renal, 11.1 µM; in the assay with EKVX NSCLC it was 5.67 µM. The GI50 with M14 melanoma was 28.4 µM; in the assay on PC-3 prostate it was 4260 nM; in the assay with MCF7 breast, 5.23 µM; in the assay with 786-0 renal, 26 µM. The TGI with SK-MEL-5 melanoma is 22 µM; in the assay with K-562 leukemia, 51.8 µM; in the assay on CAKI-1 renal it was more than 100 µM; in the assay on KM12 colon it was 72.6 µM; in the assay on ACHN renal, more than 100 µM; in the assay on EKVX NSCLC, more than 100 µM. Also, the TGI with M14 melanoma is more than 100 µM; in the assay on PC-3 prostate, more than 100 µM; with MCF7 breast, 26.3 µM; with 786-0 renal it was more than 100 µM.

As to `Cc1nn(Cc2ccccc2)cc1C(=O)Nc1sc2c(c1C(N)=O)CCC(=O)C2`, the GI50 with SK-MEL-5 melanoma is 1.83 µM; with K-562 leukemia, 1700 nM; with CAKI-1 renal it was 1.42 µM; in the assay with KM12 colon it was 1.94 µM; with ACHN renal, 1.65 µM; in the assay on EKVX NSCLC, 3.03 µM. Moreover, the GI50 with M14 melanoma is 3.42 µM; with PC-3 prostate, 752 nM; with MCF7 breast it was 2.48 µM; in the assay with 786-0 renal it was 3.55 µM. For the same compound, the TGI was determined as 3.33 µM with SK-MEL-5 melanoma; 13.1 µM with K-562 leukemia; 2.92 µM with CAKI-1 renal; 4.99 µM with KM12 colon; 3.35 µM in the assay with ACHN renal; 21.7 µM with EKVX NSCLC. For the same compound, the TGI is 14.4 µM with M14 melanoma, 5.14 µM in the assay with PC-3 prostate, 7.59 µM in the assay with MCF7 breast and 28.6 µM in the assay on 786-0 renal.

As to `O=C1C(Cl)=C(Cl)C(=O)N1c1ccc(F)cc1`, the TGI in the assay with SK-MEL-5 melanoma was more than 67.9 µM; in the assay on K-562 leukemia, more than 51.1 µM; in the assay with CAKI-1 renal it was 21 µM; with KM12 colon, 50.2 µM; in the assay with ACHN renal, 36.3 µM; in the assay with EKVX NSCLC, 40.6 µM. Besides, the TGI in the assay with M14 melanoma was 39.5 µM; in the assay on PC-3 prostate, 29.8 µM; with MCF7 breast it was 42.9 µM; in the assay on 786-0 renal it was 31 µM.

For `O=C1C(Cl)=C(Nc2cc(Cl)ccc2O)C(=O)N1Cc1ccccc1`, the GI50 with SK-MEL-5 melanoma was 16.1 µM; with K-562 leukemia, 23700 nM; in the assay on CAKI-1 renal, 18.3 µM; in the assay on KM12 colon it was 22 µM; with ACHN renal, 17.2 µM; in the assay with EKVX NSCLC it was 21.3 µM. Further, the GI50 was 17.1 µM in the assay with M14 melanoma, 16300 nM in the assay with PC-3 prostate, 21 µM in the assay on MCF7 breast and 18.2 µM with 786-0 renal. Also, the TGI with SK-MEL-5 melanoma amounted to 29.9 µM; with K-562 leukemia, 65.3 µM; in the assay on CAKI-1 renal, 40.9 µM; in the assay on KM12 colon it was 48.2 µM; in the assay on ACHN renal, 31.9 µM; in the assay with EKVX NSCLC, 50.5 µM. For the same compound, the TGI was determined as 33.3 µM in the assay on M14 melanoma, 32.6 µM with PC-3 prostate, 52.9 µM in the assay on MCF7 breast and 33 µM with 786-0 renal.

For the origin of these results see PubChem BioAssay (NCI).
